Laboratory results from patent US4450160A, “1,2-Dihydropyrido[3,4-b]-pyrazines and method and intermediates for preparing same” (Southern Research Institute, priority 1982, dated 1984).
pIC50: −log10 of the molar value. One block for each compound: values may come before it.

What was measured:
[1] = test system: lymphoid leukemia L1210 cells; experiment: inhibition of proliferation of cultured lymphoid leukemia L1210 cells; assay type: cell-based; settings: Mus musculus, concentration that inhibits proliferation to 50% of control growth, 24 hours, (g) = average of 2 determinations, read-out: L1210 ID50
Source text: (b) Concentration of agent that inhibits proliferation of cultured lymphoi
leukemia L1210 cells to 50% control growth.

[2] = test system: Lymphocytic leukemia P388; experiment: P388 lymphocytic leukemia, 10^6 tumor cell implant, i.p., % ILS; assay type: in vivo, mice
Source text: (d) Lymphocytic leukemia p388. Geran, R. I., Greenberg, N. H., MacDonald,
M. M., Schulacker, A. M., Abott, B. J., Cancer Chemother. Rep., 1972, Par

[3] = test system: cultured lymphoid leukemia L1210 cells; experiment: Mitotic Index, fraction of cultured L1210 cells in mitoses (metaphase); assay type: cell-based
Saccharomyces cerevisiae = experiment: antifungal activity; assay type: cell-based
Procedure: (§1) The 1,2-dihydropyrido[3,4-b]pyrazines at concentrations that prevented any increase in the cell number during a 24 hour period had little effect upon the synthesis of DNA, RNA, and protein by cultured L1210 cells during exposure for four hours. […] Exposure of cultured L1210 cells to the 1,2-dihydropyrido[3,4-b]pyrazines inhibited cell division as measured by the mitotic index (MI) (Table V), which is the fraction of the cell population that is made up of metaphase cells. […] For example, 5-amino-1,2-dihydro-3-phenylpyrido[3,4-b]pyrazin-7-ylcarbamate was active against Saccharomyces cerevisiae, Asperigillus niger, Penicillium italicum and Botrytis cinereae.

Penicillium italicum = experiment: antifungal activity; assay type: cell-based
Procedure: as §1

Botrytis cinereae = experiment: antifungal activity; assay type: cell-based
Procedure: as §1

Asperigillus niger = experiment: antifungal activity; assay type: cell-based
Procedure: as §1

[4] = test system: P388 cells that were resistant to vincristine; experiment: vincristine-resistant line of P388 in mice; assay type: in vivo
Source text: (h) Vincristineresistant line of P388. Wilkoff, L. J. and Dulmadge, E. A.,

KB cell culture = settings: abstract, Gatlinburg 1976; cited from earlier work
leukemia L1210 = settings: mouse, in vivo; cited from earlier work
[5] = Mus musculus, P388, ip, 24 h, i.p. implant, day 1
[6] = Mus musculus, P388, ip, i.p. implant, days 1-9
[7] = Mus musculus, P388, ip, i.p. implant, days 1-5
[8] = Mus musculus, P388, ip, i.p. implant, days 1-5, 10 mg/kg

SMILES: CC[C@]1(O)C[C@H]2CN(CCc3c([nH]c4ccccc34)[C@@](C(=O)OC)(c3cc4c(cc3OC)N(C=O)[C@H]3[C@@](O)(C(=O)OC)[C@H](OC(C)=O)[C@]5(CC)C=CCN6CC[C@]43[C@@H]65)C2)C1 [Vincristine, reference compound]
pIC50 [1]: > 9.00 | ILS at 2.7 mg/kg ([2]; Mus musculus, P388, ip, 24 h, i.p. implant, day 1, 2.7 mg/kg): 100% | ILS at 1.3 mg/kg ([2]; Mus musculus, P388, ip, i.p. implant, days 1,5,9, 1.3 mg/kg): 181% | ILS at 0.33 mg/kg ([2]; Mus musculus, P388, ip, i.p. implant, days 1-9, 0.33 mg/kg): 145% | 40th-day survivors ([2]; day 1, 2.7 mg/kg): Two | 40th-day survivors ([2]; days 1,5,9, 1.3 mg/kg): Three | 40th-day survivors ([2]; days 1-9, 0.33 mg/kg): Three

pIC50 [1]: 9.29
SMILES: CCOC(=O)Nc1cc2c(c(N)n1)N=C(c1ccccc1)C(C)N2 (centres unmarked) [C6 H5, R4 = CH3]
Mitotic Index 12h ([3]; 0.003 μM): 0.69

SMILES: CCOC(=O)Nc1cc2c(c(N)n1)N=C(c1ccc(OC)cc1)CN2 [4-CH3 OC6 H4]
Mitotic Index 24h ([3]; 0.3 μM): 0.27 | pIC50 [1]: 8.39 | ILS at 25 mg/kg [2, 5]: 50% | ILS at 25 mg/kg ([2]; Mus musculus, P388, ip, i.p. implant, days 1,5,9): 63% | ILS at 3 mg/kg [2, 6]: 35%

SMILES: CCOC(=O)Nc1cc2c(c(N)n1)N=C(c1ccc(F)cc1)CN2 [4-FC6 H4]
Mitotic Index 12h ([3]; 0.01 μM): 0.47 | pIC50 [1]: 8.17 | ILS at 3 mg/kg [2, 7]: 49%

SMILES: CCOC(=O)Nc1cc2c(c(N)n1)N=C(c1ccc(Cl)c(Cl)c1)CN2 [3,4-Cl2 C6 H3]
Mitotic Index 12h ([3]; 0.01 μM): 0.69 | Mitotic Index 12h ([3]; 0.03 μM): 0.53 | pIC50 [1]: 7.74 | ILS at 10 mg/kg [2, 8]: 58%

SMILES: CCOC(=O)Nc1cc2c(c(N)n1)N=C(c1ccc3ccccc3c1)CN2 [2-C10 H7]
Mitotic Index 12h ([3]; 0.03 μM): 0.60 | pIC50 [1]: 8.22 | ILS at 5 mg/kg ([2]; Mus musculus, P388, ip, i.p. implant, days 1-5, 5 mg/kg): 53% | ILS at 10 mg/kg [2, 8]: 66% | 30th-day survivor ([2]; days 1-5, 10 mg/kg): One

pIC50 [1]: 8.91
SMILES: CCOC(=O)Nc1cc2c(c(N)n1)N=C(c1cccc(OC)c1)CN2 [3-CH3 OC6 H4]
Mitotic Index 12h ([3]; 0.003 μM): 0.56

SMILES: COC(=O)Nc1nc2ccc(C(=O)c3cccs3)cc2[nH]1 [Nocodazole, reference compound]
Mitotic Index 24h ([3]; 0.3 μM): 0.19 | pIC50 [1]: 7.57

SMILES: CCOC(=O)Nc1cc2c(c(N)n1)N=C(c1ccc(C(F)(F)F)cc1)CN2 [4-CF3 C6 H4, ethyl 5-amino-1,2-dihydro-3-[4'-(trifluoromethyl)phenyl]pyrido[3,4-b]pyrazin-7-ylcarbamate]
Mitotic Index 24h ([3]; 0.3 μM): 0.01 | pIC50 [1]: 6.82 | ILS at 90 mg/kg ([2]; Mus musculus, P388, ip, 24 h, i.p. implant, day 1, 90 mg/kg (highest dose tested)): 0% | ILS at 30 mg/kg ([2]; Mus musculus, P388, ip, i.p. implant, days 1,5,9, 30 mg/kg (highest dose tested)): 0% | ILS at 50 mg/kg [2, 6]: 17%

SMILES: CCOC(=O)Nc1cc2c(c(N)n1)N=C(c1ccc(C)cc1C)CN2 [2,4-(CH3)2 C6 H3]
Mitotic Index 12h ([3]; 0.1 μM): 0.66 | pIC50 [1]: 7.38 | ILS at 20 mg/kg ([2]; Mus musculus, P388, ip, i.p. implant, days 1-5, 20 mg/kg (highest dose tested)): 23%

SMILES: CCOC(=O)Nc1cc2c(c(N)n1)N=C(c1ccccc1)CN2 [C6 H5, Ethyl 5-Amino-1,2-dihydro-3-phenylpyrido(3,4-b)pyrazin-7-ylcarbamate]
antifungal activity (Saccharomyces cerevisiae): active | antifungal activity (Penicillium italicum): active | antifungal activity (Botrytis cinereae): active | antifungal activity (Asperigillus niger): active | Mitotic Index 12h ([3]; 0.03 μM): 0.65 | Mitotic Index 24h ([3]; 0.3 μM): 0.54 | pIC50 [1]: 8.33 | activity against P388 cells resistant to vincristine (in words) ([4]; in mice): active in mice against P388 cells that were resistant to vincristine | P388 % ILS ([4]; vincristine-resistant line of P388, day 1, 12 mg/kg): 50% | ILS at 12.5 mg/kg ([2]; Mus musculus, P388, ip, 24 h, i.p. implant, day 1, average of 2 determinations): 55% | ILS at 4.5 mg/kg ([2]; Mus musculus, P388, ip, i.p. implant, days 1,5,9, 4.5 mg/kg): 42% | ILS at 2 mg/kg ([2]; Mus musculus, P388, ip, i.p. implant, days 1-9, 2 mg/kg): 51%

SMILES: CCOC(=O)Nc1cc2c(c(N)n1)N=C(CN(C)c1ccc(C(=O)OC)cc1)CN2
cytotoxicity in the KB cell culture screen (KB cell culture): showed cytotoxicity | activity against leukemia L1210 in mice (leukemia L1210): activity against leukemia L1210 in mice

SMILES: CCOC(=O)Nc1cc2c(c(N)n1)N=C(c1ccc(N)cc1)CN2 [4-H2 NC6 H4]
Mitotic Index 24h ([3]; 0.3 μM): 0.19 | pIC50 [1]: 7.64 | ILS at 50 mg/kg [2, 5]: 35%

pIC50 [1]: 7.62
SMILES: CCOC(=O)Nc1cc2c(c(N)n1)N=C(c1ccc(C)cc1)CN2 [4-CH3 C6 H4]
Mitotic Index 24h ([3]; 0.3 μM): 0.22 | ILS at 12 mg/kg ([2]; Mus musculus, P388, ip, i.p. implant, days 1-5, 12 mg/kg): 30%

SMILES: CCOC(=O)Nc1cc2c(c(N)n1)N=C(c1ccc(Cl)cc1Cl)CN2 [2,4-Cl2 C6 H3]
Mitotic Index 24h ([3]; 0.3 μM): 0.20 | pIC50 [1]: 7.36 | ILS at 12.5 mg/kg [2, 7]: 49%

SMILES: CCOC(=O)Nc1cc2c(c(N)n1)N=C(c1ccc(C)c(C)c1)CN2 [3,4-(CH3)2 C 6 H3]
Mitotic Index 24h ([3]; 0.3 μM): 0.16 | pIC50 [1]: 6.86 | ILS at 12.5 mg/kg [2, 7]: 44%

pIC50 [1]: 6.80
SMILES: CCOC(=O)Nc1cc2c(c(N)n1)N=C(c1ccccc1)CN2C [C6 H5, R3 = CH3]
Mitotic Index 12h ([3]; 0.3 μM): 0.68 | ILS at 100 mg/kg ([2]; Mus musculus, P388, ip, 24 h, i.p. implant, day 1, 100 mg/kg): 12%

SMILES: CCOC(=O)Nc1cc2c(c(N)n1)N=C(c1cc(OC)c(OC)c(OC)c1)CN2 [3,4,5-(CH3 O)3 C6 H2]
Mitotic Index 12h ([3]; 0.3 μM): 0.41
